The source of these data is PubChem BioAssay AID179 (DTP/NCI, 2004).

Calls of active or inactive are those of the source.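 How the source made its calls: active means compounds giving half or more protection of infected cells from virus-caused growth loss, again on retest; inactive means the rest.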 A value given as a limit tells only on which side of the number the result lay.

The assay deals with CEM cells HIV-1 protection, formazan growth assay. Kind of assay: NCI AIDS Antiviral Assay. The settings on record: for IC50: measured here: growth of uninfected CEM cells. The method, boiled down:
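Five concentrations of each compound were applied to infected and uninfected human CEM cells. Protection from HIV-1 was judged from growth measured with a soluble formazan assay.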

For the compound `CCOC(=O)NC(Nc1ccc(OC(F)(F)F)cc1)(C(F)(F)F)C(F)(F)F`, the EC50 (in general, the midpoint of the concentration-response curve) was > 200 µM and the concentration for half-maximal inhibition (IC50) (usually the midpoint of a concentration-inhibition curve) turned out to be 105 µM.

Consider `CC(=O)N1C(Nc2nccs2)CCN1c1ccccc1` (stereo not given), for which the EC50 is > 200 µM and the IC50 came out at 26.9 µM. Regarding `CC(=O)O[C@H]1CC[C@@]2(C)[C@H](CC[C@@H]3[C@@H]2CC[C@]2(C)[C@@H]4[C@H](C[C@@H]32)O[C@]2(CC[C@@H](C)CO2)[C@H]4C)C1`, the EC50 is > 200 µM and the IC50 is > 200 µM. With `COc1cc(Nc2nc(NS(=O)(=O)c3cc(C)c(Cl)cc3S)n[nH]2)cc(OC)c1OC`, the EC50 is 112 µM and the IC50 worked out at 794 µM. Regarding `CCOC(=O)CCC(NC(=O)c1ccc(Nc2nc3ccccc3nc2-c2cccs2)cc1)C(=O)OCC` (stereo not given), the EC50 was > 200 µM and the IC50 is 13.5 µM. With `CCN(CC)CCN.O=c1cccccc1[O-].O=c1cccccc1[O-].[Co+3].[O-][Cl+3]([O-])([O-])[O-]`, the EC50 is > 200 µM and the IC50 is 2.24 µM.

With `O=C(CC1(O)C(=O)Nc2c(Cl)ccc(Cl)c21)c1ccc(F)cc1` (stereo not given), the EC50 was > 372 µM and the IC50 came to 70.8 µM. Consider `C[C@]12CCC(=O)C=C1CC[C@@H]1[C@@H]2[C@@H](O)C[C@@]2(C)[C@H]1CC[C@]2(O)C(=O)COC(=O)CCC(=O)O`, for which the EC50 is > 200 µM and the IC50 came out at 6.03 µM. As for `O=C1NC2(CCCCC2)C2CCCCCC12` (stereo not given), the result was inactive. For `CCN(CC)C(=O)C(C)n1cc(C)c(=O)[nH]c1=O` (stereo not given), the EC50 is > 977 µM and the IC50 was > 977 µM. With `CCCCCCCCCCCCCCCCOP(=O)(O)OCC(NC(C)=O)C(=O)O` (stereo not given), the EC50 was > 200 µM and the IC50 was 63.1 µM. In the case of `O=C(Nc1ccc([N+](=O)[O-])cc1)N(c1ccccn1)c1ccccn1`, the EC50 is > 200 µM and the half-maximal inhibitory concentration (IC50) came out at 151 µM. The corresponding values for `CCC1CCC2CCCC(C)N12` (stereo not given) are > 1480 µM and > 1480 µM.

As for `COc1ccc(N2C(=O)c3cccnc3S2(=O)=O)cc1`, the EC50 was > 200 µM and the IC50 is > 200 µM. Take `Cc1cccc(NC(=O)O/N=C(\Cl)C(C)C)c1`: the EC50 is > 20 µM and the IC50 was 2.82 µM. On to `COc1ccc2c(c1)C1(C=N2)CCN(C(C)=O)CC1`, for which the EC50 is > 138 µM and the IC50 is > 138 µM. With `Fc1ccc2c3c([nH]c2c1)CCNC3`, the EC50 was > 200 µM and the IC50 is > 200 µM. For the compound `CCOC(=O)C1=C(O)c2ccc(OC)cc2C(=O)C1=O`, the EC50 is > 339 µM and the IC50 came to 204 µM. For `Cc1ccc(OCC2OC(n3cnc4nc(Cl)nc(Cl)c43)CC2Oc2ccc(C)cc2)cc1` (stereo not given), the EC50 was > 200 µM and the IC50 was 1.48 µM.

In the case of `COc1ccc2c(c1)-c1c(c3cc(OC)ccc3n1CCN(C)C)CC2`, the outcome was inactive. Regarding `COc1ccc2c(c1)C(O)NC(=O)O2` (stereo not given), the EC50 was > 200 µM and the IC50 amounted to 49 µM. As for `CC1(C)N=C(C(N)=O)c2ncn(Cc3ccccc3)c2N1`, the EC50 is > 200 µM and the half-maximal inhibitory concentration (IC50) was > 200 µM. For the compound `CC(C)CC(NC(=O)C(CCI)Cc1ccccc1)C(=O)Nc1ccccc1` (stereo not given), the EC50 is > 200 µM and the IC50 was 32.4 µM.

Take `O=c1c2ccccc2[se]n1-c1cccnc1`: the EC50 is 7.94 µM and the IC50 worked out at 36.3 µM. `C=CCN1C(=O)CS/C1=N/NC(=O)C(O)(c1ccccc1)c1ccccc1`: the EC50 was > 200 µM and the concentration for half-maximal inhibition (IC50) turned out to be 129 µM.

With `COC(CC1(/C=C/O[Si](C(C)C)(C(C)C)C(C)C)C(=O)N(COCC[Si](C)(C)C)c2ccccc21)OC` (stereo not given), the EC50 was > 200 µM and the IC50 was determined as 36.3 µM. For `Cc1oc2c(C)c3oc(=O)cc(C)c3cc2c1CO`, the EC50 is > 200 µM and the 50% inhibitory concentration (IC50) is 30.2 µM. Turning to `COc1cc2c(cc1OC)-c1cc3ccccc3c(=O)n1CC2`, the EC50 is > 200 µM and the IC50 was 28.2 µM. For `S=CN1CCN(C=S)CC1`, the outcome was inactive.
